Measured values reported in US20230098667A1, “BENZODIAZEPINE DERIVATIVES, COMPOSITIONS, AND METHODS FOR TREATING COGNITIVE IMPAIRMENT” (priority 2019, published 2023).
“Also recorded” adds a separate entry of the source.

Experiments:
[1] = test system: aged-impaired (AI) rats; assay: Morris water maze behavioral task; type: in vivo, rat; conditions: 100 μg ICV
Protocol: The effects of 6,6 dimethyl-3-(3-hydroxypropyl)thio-1-(thiazol-2-yl)-6,7-dihydro-2-benzothiophen-4(5H)-one on the in vivo spatial memory retention of aged-impaired (AI) rats were assessed in a Morris water maze behavioral task. A water maze is a pool surrounded with a novel set of patterns relative to the maze.
Cognitively impaired aged rats were implanted unilaterally with a cannula into the lateral ventricle. Stereotaxic coordinates were 1.0 mm posterior to bregma, 1.5 mm lateral to midline, and 3.5 mm ventral to the skull surface. After about a week of recovery, the rats were pre-trained in a water maze for 2 days (6 trials per day) to locate a submerged escape platform hidden underneath the surface of the pool, in which the escape platform location varied from day to day. No intracerebroventricular (ICV) infusion was given during pre-training.
After pre-training, rats received ICV infusion of either 100 μg 6,6 dimethyl-3-(3-hydroxypropyl)thio-1-(thiazol-2-yl)-6,7-dihydro-2-benzothiophen-4(5H)-one (n=6) in 5 μl DMSO or vehicle DMSO (n=5) 40 min prior to water maze training and testing. Training consisted of 8 trials per day for 2 days where the hidden escape platform remained in the same location. Rats were given 60 seconds to locate the platform with a 60 seconds inter-trial interval. The rats were given a probe test (120 seconds) 24 hr. after the end of training where the escape platform was removed. During the training, there were 4 blocks, where each block had 4 training trials.
During a test trial 24 hr. after training, the escape platform was removed. The search/swim pattern of the rats was used to measure whether the rats remember where the escape platform was located during pre-trial training in order to test for the long-term memory of the rats. In this trial, “target annulus” is a designated area 1.5 times the size of the escape platform around the area where the platform was located during pre-trial training. “Opposite annulus” is a control area of the same size as the size of the target annulus, which is located opposite to the target annulus in the pool. If the rats had good long term memory, they would tend to search in the area surrounding the location where the platform was during the pre-trial training (i.e., the “target” annulus; and not the “opposite” annulus). “Time in annulus” is the amount of time in seconds that the rat spent in the target or opposite annulus area. “Number (#) of crossings” in annulus is the number of times the rat swam across the target or opposite annulus area.

[2] = molecular target: T1, GABAA receptors α5β3γ2 (GABA α5) (Homo sapiens, UniProt P18507+P31644); assay: Binding activity on GABAAR: inhibition of [3H]Ro15-1788 binding, membranes of Ltk cells; conditions: α5β3γ2 Ltk cell membranes
T1 construct: membranes
T1 sequence (P31644 32-462): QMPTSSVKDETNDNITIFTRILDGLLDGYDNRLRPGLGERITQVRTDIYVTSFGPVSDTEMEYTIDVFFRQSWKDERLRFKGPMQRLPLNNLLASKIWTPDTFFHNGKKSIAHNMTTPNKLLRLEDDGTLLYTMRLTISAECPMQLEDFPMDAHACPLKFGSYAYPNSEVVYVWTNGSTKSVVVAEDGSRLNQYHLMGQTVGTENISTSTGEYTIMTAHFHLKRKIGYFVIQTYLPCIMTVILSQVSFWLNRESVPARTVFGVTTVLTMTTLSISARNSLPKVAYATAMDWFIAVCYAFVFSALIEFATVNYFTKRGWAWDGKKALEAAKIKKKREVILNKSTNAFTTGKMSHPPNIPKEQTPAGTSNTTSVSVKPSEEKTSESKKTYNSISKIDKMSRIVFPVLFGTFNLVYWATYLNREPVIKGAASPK
T1 sequence (P28472 26-473 partner): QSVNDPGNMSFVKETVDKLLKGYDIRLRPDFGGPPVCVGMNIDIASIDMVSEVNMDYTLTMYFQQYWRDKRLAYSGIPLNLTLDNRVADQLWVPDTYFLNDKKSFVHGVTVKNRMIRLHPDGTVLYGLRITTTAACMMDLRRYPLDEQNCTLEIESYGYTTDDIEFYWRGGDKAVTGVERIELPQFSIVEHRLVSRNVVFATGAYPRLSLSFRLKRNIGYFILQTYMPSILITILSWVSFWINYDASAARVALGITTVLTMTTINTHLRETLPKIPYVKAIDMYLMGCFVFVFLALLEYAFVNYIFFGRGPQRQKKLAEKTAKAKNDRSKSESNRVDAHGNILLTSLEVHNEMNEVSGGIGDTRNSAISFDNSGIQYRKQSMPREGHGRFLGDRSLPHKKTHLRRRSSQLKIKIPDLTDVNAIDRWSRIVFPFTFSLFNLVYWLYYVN
T1 sequence (P18507 40-467 limits assumed): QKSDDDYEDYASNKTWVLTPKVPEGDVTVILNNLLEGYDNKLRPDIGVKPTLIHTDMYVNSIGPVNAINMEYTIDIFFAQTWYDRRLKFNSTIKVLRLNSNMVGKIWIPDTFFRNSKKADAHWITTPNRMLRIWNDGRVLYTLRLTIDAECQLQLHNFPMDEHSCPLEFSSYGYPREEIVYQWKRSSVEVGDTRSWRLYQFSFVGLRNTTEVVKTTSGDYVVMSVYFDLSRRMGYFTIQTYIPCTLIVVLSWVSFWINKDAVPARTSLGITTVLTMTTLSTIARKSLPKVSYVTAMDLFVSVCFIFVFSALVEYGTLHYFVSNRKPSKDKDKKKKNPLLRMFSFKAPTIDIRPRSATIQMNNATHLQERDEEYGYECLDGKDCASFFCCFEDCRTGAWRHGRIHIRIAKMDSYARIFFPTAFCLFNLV
Protocol: Tissue culture and Membrane Preparation: The binding was performed on Ltk cells stably expressing GABAA receptors: α1β1γ2, α2β3γ2, α3β3γ2 and α5β3γ2 (provided by Merck Co., NJ, USA). Cells were seeded in 100 mm culture plates in DMEM/F12 medium containing 10% serum and antibiotics in 5% CO2 and allowed to grow for 1-2 days. GABAAR expression was then induced by dexamethasone as follows: 0.5 μM for 1 day for α5 containing and 2 μM for 3 days for α1, α2 and α3 containing GABAARs. After induction, cells were collected by scraping into Dulbecco's Phosphate buffered saline (DPBS, pH 7.4, Invitrogen, Carlsbad, Calif., USA) and centrifuged at 150×g for 10 min. The pellet was washed twice by re-suspension and centrifugation. The cell pellets from at least 5 different preps were combined, suspended in the binding assay buffer (50 mM KH2PO4; 1 mM EDTA; 0.2 M KCl, pH 7.4) and membranes prepared by sonication (3-5 times, 30 sec) using Branson Sonifier 150 (G. Heinmann, Germany). Protein content was determined using BCA assay (Bio-Rad Labs, Reinach, Switzerland) with Bovine Serum Albumin (Sigma Aldrich, St. Louis, Mo., USA) as the standard. Aliquots were prepared and stored at −20° C. for further use in binding assays.
Ligand Binding: Saturation binding curves were obtained by incubating membranes with increasing concentrations (0.01-8 nM) of [^3H]Rol5-1788 (Flumazepil, 75-85 Ci/mmol, PerkinElmer, MA, USA), with nonspecific binding measured in the presence of 10 μM diazepam.
All binding assays were performed for 1 h at 4° C. in assay buffer. The total assay volume was 0.5 ml containing 0.2 mg/ml protein for α5 and 0.4 mg/ml for α1, α2, and α3 containing GABAAR membranes. Incubations were terminated by filtration through GF/B filters using a 24-Cell Harvestor (Brandel, Gaithersburg, Md., USA) followed by 3 washes with ice-cold assay buffer. Filters were transferred to scintillation vials, 5 ml scintillation liquid added, vortex-mixed and kept in dark. Next day, radioactivity was obtained using a scintillation counter (Beckman Coulter, Brea, Calif., USA). All assays were performed in triplicate.
Data Analyses: Saturation and inhibition curves were obtained using GraphPad Prism software (GraphPad Software, Inc., CA, USA).

[3] = molecular target: T2, GABAA α5 receptor (Rattus norvegicus, UniProt P19969); assay: GABAA α5 receptor occupancy with Ro 15-4513 tracer; type: in vivo, Long Evans rats; conditions: i.v.
T2 construct: from tissue; host or cells: brain of living Long Evans rats; hippocampus and cerebellum dissected after i.v. dosing
T2 sequence (P19969 32-464 limits assumed): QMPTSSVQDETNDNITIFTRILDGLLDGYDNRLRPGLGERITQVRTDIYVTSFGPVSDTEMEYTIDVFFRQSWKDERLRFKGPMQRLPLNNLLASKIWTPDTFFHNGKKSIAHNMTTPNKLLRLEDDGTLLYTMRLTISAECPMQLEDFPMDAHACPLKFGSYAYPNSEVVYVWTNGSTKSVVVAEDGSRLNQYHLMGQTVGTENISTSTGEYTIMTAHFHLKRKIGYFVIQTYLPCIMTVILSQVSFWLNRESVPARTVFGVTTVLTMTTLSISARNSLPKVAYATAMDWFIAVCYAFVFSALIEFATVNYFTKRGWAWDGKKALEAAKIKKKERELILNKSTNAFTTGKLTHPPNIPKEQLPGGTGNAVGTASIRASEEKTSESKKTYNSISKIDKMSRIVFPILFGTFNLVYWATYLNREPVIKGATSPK
From the text: Food and water were available ad libitum.

[4] = test system: aged-impaired (AI) rats; assay: Radial Arm Maze (RAM) behavioral task, four-hour delay; type: in vivo, rat
Protocol: The same experiment was repeated using the same vehicle control and doses of ethyl 3-methoxy-7-methyl-9H-benzo[f]imidazo[1,5-a][1,2,4]triazolo[4,3-d][1,4]diazepine-10-carboxylate, where the vehicle control was tested 5 times, the 3 mg/kg dose of ethyl 3-methoxy-7-methyl-9H-benzo[f]imidazo[1,5-a][1,2,4]triazolo[4,3-d][1,4]diazepine-10-carboxylate was tested 4 times, and the other doses of ethyl 3-methoxy-7-methyl-9H-benzo[f]imidazo[1,5-a][1,2,4]triazolo[4,3-d][1,4]diazepine-10-carboxylate were tested twice.
Parametric statistics (paired t-tests) was used to compare the retention test performance of the AI rats in the four-hour delay version of the RAM task in the context of different doses of ethyl 3-methoxy-7-methyl-9H-benzo[f]imidazo[1,5-a][1,2,4]triazolo[4,3-d][1,4]diazepine-10-carboxylate and vehicle control (see FIG. 5).

[5] = probe test 24 hr. after training

`CC1(C)CC(=O)c2c(SCCCO)sc(-c3nccs3)c2C1` [6,6 dimethyl-3-(3-hydroxypropyl)thio-1-(thiazol-2-yl)-6,7-dihydro-2-benzothiophen-4(5H)-one] was tested, and the “number of crossings of target annulus versus opposite annulus” value [1, 5] was “crossed the “target annulus” more often”, the “time in target annulus versus opposite annulus” value [1, 5] was “spent significantly more time in the target annulus” and the “time to find the escape platform (escape latency)” value ([1]; training block 1) was “about 24 seconds”. The “time to find the escape platform (escape latency)” value ([1]; training block 4) was “about 9.6 seconds”.

Compound `COCc1nnc2n1Cc1c(C#Cc3cnc(OC)c(C(F)(F)F)c3)ncn1-c1ccc(OC)cc1-2` [Compound 731] has a Ki [2] of 100 to 1000 nM.

With `COc1ccc2c(c1)-n1nncc1Cc1c(C#Cc3cnc(OC)c(F)c3)ncn1-2` [Compound 732] the Ki [2] was 100 to 1000 nM.

`COc1ncc(C#Cc2ncn3c2Cc2cnnn2-c2cc(Cl)ccc2-3)cc1F` [Compound 734] was tested, and the Ki [2] was less than 100 nM.

Compound `COc1ccc2c(c1)-n1nncc1Cc1c(C#Cc3cn(C)nc3OC)ncn1-2` [Compound 735] has a Ki [2] of less than 100 nM.

Compound `COCc1nnc2n1Cc1c(C#Cc3cn(C)nc3OC)ncn1-c1ccc(OC)cc1-2` [Compound 736] has a Ki [2] of less than 100 nM.

`COCc1nnc2n1Cc1c(C#Cc3cn(C)nc3OC)ncn1-c1ccc(Cl)cc1-2` [Compound 737] showed a Ki [2] of less than 100 nM.

For `COCc1nnn2c1Cc1c(C#Cc3cn(C)nc3OC)ncn1-c1ccc(Cl)cc1-2` [Compound 738], the Ki [2] was less than 100 nM.

For `COCc1nnn2c1Cc1c(C#Cc3cnc(C)n3C)ncn1-c1ccc(Cl)cc1-2` [Compound 740], the Ki [2] was less than 100 nM.

For `CCOC(=O)c1ncn2c1CN(C)C(=O)c1cc(N=[N+]=[N-])ccc1-2` [Ro 15-4513], the “levels of Ro 15-4513 in cerebellum” value ([3]; tracer 1 μg/kg, after vehicle) was 0.36 ± 0.02 ng/g, the “levels of Ro 15-4513 in hippocampus” value ([3]; tracer 1 μg/kg, after vehicle) was 1.93 ± 0.05 ng/g and the “levels of Ro 15-4513 in hippocampus compared with cerebellum” value ([3]; tracer 1 μg/kg, after vehicle) was greater than 5 fold.

With `CCOC(=O)c1ncn2c1Cn1c(C)nnc1-c1cc(OC)ccc1-2` [ethyl 3-methoxy-7-methyl-9H-benzo[f]imidazo[1,5-a][1,2,4]triazolo[4,3-d][1,4]diazepine-10-carboxylate] the “memory performance relative to vehicle control” value ([4]; 3 mg/kg) was “significantly improved memory performance”, the “memory performance relative to vehicle control” value ([4]; 10 mg/kg) was “significantly improved memory performance” and the “effect on Ro 15-4513 binding in hippocampus and cerebellum” value ([3]; 0.01-10 mg/kg) was “reduced Ro 15-4513 binding in hippocampus, without affecting cerebellum levels of Ro 15-4513; also recorded: blocked the binding of Rol54513 in the hippocampus but did not affect binding of Rol5413 in the cerebellum”. For the same compound, the “GABAA α5 receptor occupancy” value ([3]; 10 mg/kg) was greater than 90%.
